The numbers were not newly measured in patent publication US5788978A, “Injectable pulsatile ivermectin composition” (priority 1996, dated 1998), which cites them from elsewhere.

One data set relates to parasites. Particulars: in vivo.

Take ivermectin: the “solubility in acqueous media” value is on record as “insoluble”. The “minimum efficiency level in serum” value in the data set on parasites is reported as 2 to 5 nanogrammes per milliliter of serum.
